Data set [1] is described as follows: CD spectroscopy, α-helicity. The data set is classed as physicochemical. As to conditions: 5 × 10^−5 M peptide in H2O, 25 °C, 1 mm cuvette, 185-260 nm. As to the method:
The detection wavelengths of the peptides were 214 and 254 nm. Solvent A: H2O (containing 0.1% TFA) and solvent B: acetonitrile (containing 0.1% TFA) were used as solvents in linear gradient mixtures. Peptide purification was performed by semi‐preparative HPLC using an XBridge Prep C18 column (19 × 250 mm, 10 µm particle size, flow rate of 20 mL min^−1). Solvents A and B were the same as those in the peptide analysis procedure. The peptides were dissolved in H2O to a final concentration of 5 × 10^−5 M. The purified peptide was detected using a mass spectrometer (6410 Triple Quad LC/MS, Agilent, USA) (Table S2, Supporting Information). The solvent was 80% methanol and 20% H2O (containing 0.1% formic acid). The CD spectra were obtained with a 1 mm quartz cuvette on a BRIGHT TIME Chirasca (Applied Photophysics, Britain) spectropolarimeter with a scan wavelength between 185–260 nm at 25 °C. The helicity of each peptide was calculated by the literature equation.^[ [24] ^]

In data set [2] the test system is MCF7 cells. The data set is described as follows: Cell viability assay (CCK-8). As to conditions: MCF7, 5 × 10^−6 M, 24 h. The data set is classed as cell-based, human.
Experimental: (§1) MCF7, MDA‐MB‐231, and MDA‐BoM‐1833 cells (5000 cells/well) were seeded in 96‐well plates and cultured overnight at 37°C and 5% CO2. The cells were then treated with fresh basic medium containing various concentrations (1/2/5/10/20 × 10^−6 M) of compounds. After 24 h of incubation, the cells were incubated with a basic medium containing 10% Cell Counting Kit‐8 (Dojindo, CK‐04) for 2 h. Cell viability was evaluated by measuring the absorbance at 450 nm. The formula used was [(As‐Ab)/(Ac‐Ab)] × 100%, where as represents the absorbance of the drug‐treated group, Ac represents the absorbance of the control group treated with medium, and Ab represents the absorbance of the blank control containing only medium.
Data set [3] deals with MCF7 cells. The data set is described as follows: Long-chain fatty acid uptake assay (BODIPY FL C16). The data set is classed as cell-based, human. As to conditions: 24 h, BODIPY FL C16 1 h. The procedure: 5×10^4 MCF7 cells were seeded in confocal dishes and cultured overnight at 37 °C and 5% CO2. The cells were then incubated with a basic DMEM medium containing various concentrations of peptides (1/2/5/10/20 × 10^−6 M for flow cytometry and 10 × 10^−6 M for immunofluorescence) for 24 h. Afterward, 1 µL BODIPY FL C16 (1 × 10^−6 M, Thermo Fisher, D3821) was added to the confocal dishes and incubated with the cells for 1 h. Following incubation, the cell nuclei were stained with Hoechst for 8 min. Uptake of FA was monitored using flow cytometry (CytoFLEX, Beckman Coulter, USA) and DeltaVision OMX (GE, USA).

Data set [4] has as its system MDA-MB-231 cells. Kind of data set: Transwell cell migration analysis. Type of data set: cell-based. As to conditions: MDA-MB-231, 12 h. The procedure:
600 µL DMEM complete medium was added to the lower chamber of the Transwell. Next, 2×10^4 cells in 100 µL DMEM medium, containing 1, 2, 5, 10, or 2 × 10^−5 M peptides, were added to the upper chamber of the Transwell. The cells were incubated for 12 h at 37 °C and 5% CO2. After the incubation period, the medium was discarded, and the chamber was washed with PBS. The cells were then fixed with 4% paraformaldehyde for 20 min. The upper chamber was subsequently soaked in crystal violet for 20 min, washed with PBS, and observed under a microscope for analysis.

Data set [5] concerns MCF7 cells. Kind of data set: Scratch (wound-healing) assay. As to conditions: MCF7, 12 h. Type of data set: cell-based, human. As to the method: MCF7 and MDA‐MB‐231 cells were seeded in 6‐well plates and cultured overnight. Once the cell density reached 90%, a line was scratched along the center of the 6‐well plate and images were taken randomly in the scratch domain under a microscope. The cells in each well were then treated with peptides of varying concentrations for 12 h, after which images were taken again in the scratch domain. The formula used to calculate the scratch healing rate was as follows: Scratch healing rate (%) = [(Scratch area at 0 h – Scratch area at 12 h) […] Scratch area at 0 h] × 100%.

The subject of a further data set is MDA-BoM-1833 cells. The data set is described as follows: Cell viability assay (CCK-8). Type of data set: cell-based. As to conditions: MDA-BoM-1833, 5 × 10^−6 M, 24 h.
In the next data set the target is T1, Nur77-PPARγ interaction (Homo sapiens, UniProt P22736).
T1 construct: expressed in transfected cells; host or cells: HEK293T
T1 sequence (P22736 whole entry): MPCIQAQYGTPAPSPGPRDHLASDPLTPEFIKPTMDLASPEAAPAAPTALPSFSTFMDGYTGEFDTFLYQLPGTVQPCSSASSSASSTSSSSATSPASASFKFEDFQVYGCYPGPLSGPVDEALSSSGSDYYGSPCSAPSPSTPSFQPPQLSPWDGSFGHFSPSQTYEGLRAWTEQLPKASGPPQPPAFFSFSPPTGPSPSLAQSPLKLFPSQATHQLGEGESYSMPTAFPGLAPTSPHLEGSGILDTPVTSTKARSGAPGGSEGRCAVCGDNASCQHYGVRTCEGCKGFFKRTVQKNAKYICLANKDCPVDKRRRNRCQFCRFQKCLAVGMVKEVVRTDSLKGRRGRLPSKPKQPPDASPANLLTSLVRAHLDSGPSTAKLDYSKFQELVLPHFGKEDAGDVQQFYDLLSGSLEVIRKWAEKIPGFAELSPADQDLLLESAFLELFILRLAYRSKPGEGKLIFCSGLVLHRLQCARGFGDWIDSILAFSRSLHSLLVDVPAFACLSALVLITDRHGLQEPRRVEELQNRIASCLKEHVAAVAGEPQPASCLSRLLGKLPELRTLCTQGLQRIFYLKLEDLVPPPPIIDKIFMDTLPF
The data set is described as follows: Co-immunoprecipitation (IP: Nur77; IB: PPARγ, Trim13) in HEK293T cells. Type of data set: cell-based. As to conditions: 1 × 10^−5 M, 24 h. The procedure: HEK293T cells were seeded overnight in 10 cm culture dishes and transfected with the Nur77 and PPARγ plasmids for 48 h. After transfection, T‐CY14 and ST‐CY14 were incubated with the cells for 24 h. The cells were then collected and lysed in 500 µL precooled NP40 lysis buffer (Beyotime, P0013F), which contained 20x […] and 50x phosphatase inhibitor. All the samples were prepared at a concentration of 1 mg mL^−1, and 0.5 mg of the sample was subsequently incubated overnight at 4 °C with 2 µg of Nur77 antibody (Proteintech, 12235‐1‐AP). The samples were then incubated with Protein A/G PLUS‐Agarose (Santa Cruz, sc‐2003) for 4 h at 4 °C. The beads were collected through centrifugation and washed five times with NP40 lysis buffer. Finally, 5x loading buffer was added to the buffer containing the beads for Western blot analysis of PPARγ antibody (Proteintech, 16643‐1‐AP), Trim13 antibody (Abcam, ab234847), and β‐actin antibody (epizyme, LF201).

A further data set can be described thus: Solubility test in PBS. The data set is classed as physicochemical. As to conditions: PBS buffer, aqueous buffer, 1 mg in 50 µL, gradient diluted from 20 to 0.078125 mg mL^−1, OD at 600 nm (turbidity), plate reader. The procedure:
Mix 1 mg ST‐CY14 or Csn‐B (Shanghai Sunny Biotech) in 50 µL PBS buffer, and then transfer 40 µL the suspension to a 96‐well plate. The suspension was gradient diluted from 20 to 0. 07 8125 mg mL^−1. OD values were measured at 600 nm on a Cytation 5 (Biotek, USA) plate reader. PBS was set as a blank control.

Data set [6] concerns MDA-MB-231 cells. The data set is described as follows: Cell viability assay (CCK-8). The data set is classed as cell-based. As to conditions: MDA-MB-231, 5 × 10^−6 M, 24 h.
Experimental: as §1

The structures appear in SMILES notation. Where a SMILES comes first, the peptide text is derived from it. Bridges are numbered along the chain shown (N, C = ends). [ ]: non-standard residue; d: D form. S5 = C=CCCC[C@](C)(N)C(=O)O

Experimental for MDA-BoM-1833 cells: as §1

The solubility is the dissolved amount per volume that the medium holds. Read a high solubility as much dissolved substance. As to `C[C@@H](O)[C@@H]1NC(=O)[C@H](CCCNC(=N)N)NC(=O)[C@H](CCCNC(=N)N)NC(=O)[C@@](C)(NC(=O)[C@H](Cc2ccccc2)NC(=O)CNC(=O)[C@H](CCCCN)NC(=O)[C@H](CS)NC(=O)CNC(=O)[C@H](CCC(=O)O)NC(=O)[C@@H](N)CS)CCCC=CCCC[C@@](C)(C(=O)N[C@@H](CCCNC(=N)N)C(=O)N[C@@H](Cc2ccc(O)cc2)C(=O)N[C@@H](Cc2ccc(O)cc2)C(=O)NCC(=O)N[C@@H](CCCNC(=N)N)C(=O)N[C@@H](CCCCN)C(=O)N[C@@H](CCCCN)C(=O)N[C@@H](CCCNC(=N)N)C(=O)N[C@@H](CCCNC(=N)N)C(=O)N[C@@H](CCC(N)=O)C(=O)N[C@@H](CCCNC(=N)N)C(=O)N[C@@H](CCCNC(=N)N)C(=O)N[C@@H](CCCNC(=N)N)C(N)=O)NC1=O` [ST-CY14] (H-CEGCKGF[S5]RRT[S5]RYYGRKKRRQRRR-NH2; staple 8-12), the “α-Helicity (CD)” value in data set [1] amounted to 12.01%. Also, the “Cell viability / proliferation” value in the data set on MCF7 cells [2], in the data set on MDA-BoM-1833 cells and with MDA-MB-231 cells [6] was “significantly attenuated breast tumor cell proliferation” each time. In addition, the “FA uptake (flow cytometry)” value in the data set with MCF7 cells [3] (MCF7, 1-20 × 10^−6 M) is reported as “dose‐dependent decrease in FA levels”. Further, the “FA uptake (immunofluorescence)” value in the data set with MCF7 cells [3] (MCF7, 1 × 10^−5 M) is given as “inhibited FA uptake”. In addition, the Transwell transmigration entry in the data set with MDA-MB-231 cells [4] is reported as “inhibited the transmigration”. Besides, the Scratch healing entry with MCF7 cells [5] is reported as “suppressed the scratch healing”. At Nur77-PPARγ interaction, the “Endogenous Nur77-PPARγ binding (Co-IP)” value is “inhibited the binding between Nur77 and PPARγ”. Also, the “Trim13 and ubiquitination of Nur77 (Co-IP)” value at Nur77-PPARγ interaction was “obviously reduced the expression of Trim13 and attenuated the PPARγ‐induced ubiquitination of endogenous Nur77”. For the same molecule, in “Solubility test in PBS”, the solubility was above 20 mg/mL.

Source of the values: paper PMC11234460, “In Silico Discovery of Stapled Peptide Inhibitor Targeting the Nur77‐PPARγ Interaction and Its Anti‐Breast‐Cancer Efficacy” (Advanced Science, 2024).
